Measurements from US12600696B2 (XENIOPRO GMBH, priority 2017, dated 2026).

How the values were obtained:
Format in all cases: cell-based
[1] = test system: HPEKp cells (human epidermal keratinocyte progenitors, pooled); assay: alamarBlue proliferation assay with HPEKp cells; details: 120 h, relative to DMSO basis level 1.0, read-out: weighted arithmetic mean (AVEw) of normalized fluorescence intensity, activity range
Method: (§1) The antiproliferative activities of compounds falling under formula I, formula II, formula III, formula IV and formula V were investigated on cells or cell lines originating from a disorder of the myeloid cell compartment, the neuroendocrine system, the cervix, and the mucosal epithelium, as well as from the skin epithelium. To this end, HL-60 cells, TT cells, HeLa cells, CAL-27 cells and human primary epidermal keratinocytes (HPEK) were seeded into 96-well plates suitable for fluorescence assays (CORNING #3598) at following initial cell numbers: 1000 cells per well for HL-60; 9000 cells per well for TT; 2000 cells per well for HeLa, 2000 cells per well for CAL-27, 2000 cells per well for HPEK. The cells were treated with compounds at indicated final concentrations (diluted from the 1000× stock-solutions in DMSO to a final DMSO concentration of 0.1% v/v) or with the empty carrier DMSO at 0.1% v/v as control for 5 days. At day 5 after starting the treatments the cells were subjected to the alamarBlue® Proliferation Assay (Bio-Rad Serotec GmbH, BUF012B) according to the protocol of the manufacturer. The readout was taken with a multi-well plate-reader in the fluorescence mode with applying a filter for excitation at 560 nm (band width 10 nm) and for emission at 590 nm (band width 10 nm). Resveratrol (RES) treatment was included as control for growth inhibition.
(§2) The assays were performed in duplicate or more replicates of independent single experiments each containing a six-fold replicate for every condition. For every individual plate, the measured fluorescence intensity values of the conditions with compound treatment were normalized against the corresponding equally weighted arithmetic mean of the fluorescence intensity values of the six DMSO treated control wells in order to obtain the relative values to a baseline level of 1.0. The statistical calculations were performed in analogy to the luciferase assay as described above. To this end, two independent outlier analyses were performed according to the methods by Peirce and Chauvenet (Ross, Journal of Engineering Technology 2003, 1-12). Outliers confirmed by at least one of the methods were excluded from the calculations but not more than one value out of six per compound within a single experiment. The weighted arithmetic mean AVEw for each compound was calculated from the normalized values over all independent replicates of the single experiments comprising the six replicates each. The corresponding standard deviation for the weighted arithmetic mean was calculated according to the method described by Bronstein et al. (Bronstein, Semendjajew, Musiol, Mühlig, Taschenbuch der Mathematik, 5th edition 2001 (German), publisher: Verlag Harri Deutsch, Frankfurt am Main and Thun) and was combined with the Gauß′ error propagation associated with the performed calculation for the normalization. The resulting standard deviation is herein referred to as “combined standard deviation”.
HPEKp cells were cultivated according to the protocol of the provider in CnT-Prime epithelial culture medium (CELLnTEC, #CnT-PR, a fully defined, low calcium formulation, completely free of animal or human-derived components) without addition of further components.
(§3) A compound is considered as a growth inhibitor of HPEKp cells, if—at a reference concentration of 10 μM—the weighted arithmetic mean of the normalized fluorescence intensity values after addition of the corresponding combined standard deviation amounts to 0.9 or lower, in particular to 0.8 or lower, 0.7 or lower, 0.6 or lower, 0.4 or lower, and 0.2 or lower, relative to the overall basis level of 1.0. The overall basis level was calculated as the weighted arithmetic mean of all normalized values from the DMSO control measurements in analogy to the calculations performed for the test-compounds. The corresponding combined standard deviation for the DMSO values amounts to less than 1·10^−2.

[2] = test system: Notch signaling (hNotch1ΔE, human Notch1 receptor) in HeLa cells; assay: Notch reporter assay (luciferase luminescence readout in transfected HeLa cells); details: Homo sapiens, 20 hours, relative to DMSO baseline level of 1.0, read-out: AVEw, weighted arithmetic mean of double-normalized Notch-reporter luciferase luminescence values (Activity Range)
How it was run: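 HeLa cells were transiently transfected for 24 h with membrane-tethered constitutively active hNotch1ΔE, a CSL-promoter Firefly luciferase reporter and constitutive SV40-Renilla luciferase. Compounds were then applied at 10 μM (0.1% DMSO) for 20 h. Firefly/Renilla dual-luciferase ratios were normalized to DMSO control (baseline 1.0), outliers were excluded, and replicate values were averaged across ≥3 independent experiments.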

[3] = test system: HL-60 cells (human acute myeloid leukemia cells); assay: alamarBlue proliferation assay with HL-60 cells; details: 120 h, 5 days, relative to DMSO baseline level of 1.0, read-out: AVEw, weighted arithmetic mean of normalized fluorescence intensity values (Activity Range), HL-60 proliferation
How it was run: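 HL-60 cells (1000/well, RPMI 1640 + 10% FBS) exposed to compound in 0.1% DMSO for 5 days, then alamarBlue fluorescence read (ex 560/em 590 nm). Signals normalized to six DMSO wells per plate (baseline 1.0); outliers removed by Peirce/Chauvenet; weighted mean with combined SD; inhibitor criterion judged at 20 μM reference concentration.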

[4] = test system: TT cells (human medullary thyroid carcinoma cells); assay: alamarBlue proliferation assay with TT cells; details: Homo sapiens, 120 h, 40 μM, relative to DMSO basis level 1.0, read-out: weighted arithmetic mean (AVEw) of normalized fluorescence intensity, activity range
Method: as §1, §2
TT cells were cultivated according to the protocol of the provider in F-12K medium (Fisherscientific, #11580556, or ATCC, #ATCC-30-2004) containing 10% fetal bovine serum (Fisherscientific, #15517589).
as §3, with “of TT” for “of HPEKp”, “of 40” for “of 10”

[5] = test system: CAL-27 cells (human tongue squamous cell carcinoma cells); assay: alamarBlue proliferation assay with CAL-27 cells; details: Homo sapiens, 120 h; for activity at 40 µM: relative to DMSO basis level 1.0, read-out: weighted arithmetic mean (AVEw) of normalized fluorescence intensity, activity range; for activity at 20 µM: 5 days, relative to DMSO baseline level of 1.0, read-out: AVEw, weighted arithmetic mean of normalized fluorescence intensity values (Activity Range), CAL-27 proliferation
Method: as §1, §2
CAL-27 cells were cultivated according to the protocol of the provider (but at 5% instead of 10% CO2) in DMEM medium (Fisherscientific, #11584456) containing 10% fetal bovine serum (Fisherscientific, #15517589).
as §3, with “of CAL-27” for “of HPEKp”, “of 20” for “of 10”

| Compound | activity at 10 µM [1] [%] | fold induction at 10 µM [2] | activity at 20 µM [3] [%] | activity at 40 µM [4] [%] | activity at 40 µM [5] [%] | activity at 20 µM [5] [%] |
| --- | --- | --- | --- | --- | --- | --- |
| O=C(O)c1ccc(Oc2ccc(C3C[C@@H]4CC[C@H]3C4)cc2)nc1 (stereo partly drawn) [Compound 086, 6-(4-((1S,4R)-bicyclo[2.2.1]heptan-2-yl)phenoxy)nicotinic acid] | 60 to 70 | 1.1 to 1.2 | – | – | – | – |
| NC(=O)c1ccc(Oc2ccc(C34CC5CC(CC(C5)C3)C4)cc2)cc1 [Compound 161, 4-(4-((3r,5r,7r)-adamantan-1-yl)phenoxy)benzamide] | – | – | 20 to 40 | 40 to 60 | 20 to 40 | – |
| CCCCc1ccc(Oc2ccc(C(=O)NO)cc2)cc1 [Compound 167, 4-(4-butylphenoxy)-N-hydroxybenzamide] | – | – | 40 to 60 | 20 to 40 | 0 to 20 | 60 to 70 |
| O=C(NO)c1ccc(Oc2ccc(C3CC4CCC3CC4)cc2)cc1 (stereo not drawn) [Compound 185, 4-(4-((1s,4s)-bicyclo[2.2.2]octan-2-yl)phenoxy)-N-hydroxybenzamide] | 0 to 20 | – | 0 to 20 | – | – | 0 to 20 |
| CNC(=O)c1ccc(Oc2ccc(C3C[C@@H]4CC[C@H]3C4)cc2)cc1 (stereo partly drawn) [Compound 210, 4-(4-((1S,4R)-bicyclo[2.2.1]heptan-2-yl)phenoxy)-N-methylbenzamide] | – | – | 20 to 40 | 60 to 70 | 0 to 20 | 70 to 80 |
| CNC(=O)c1ccc(Oc2ccc(C3CCCCC3)cc2)nc1 [Compound 309, 6-(4-cyclohexylphenoxy)-N-methylnicotinamide] | – | – | – | 80 to 90 | – | – |
| CNC(=O)c1ccc(Oc2ccc(C3CC4CCC3CC4)cc2)nc1 (stereo not drawn) [Compound 312, 6-(4-((1s,4s)-bicyclo[2.2.2]octan-2-yl)phenoxy)-N-methylnicotinamide] | 70 to 80 | – | – | – | – | – |
| CCC(C)(C)c1ccc(Oc2ccc(C(=O)N(C)C)cn2)cc1 [Compound 323, N,N-dimethyl-6-(4-(tert-pentyl)phenoxy)nicotinamide] | 70 to 80 | 1.1 to 1.2 | 40 to 60 | – | – | – |
| CCC(C)(C)c1ccc(Oc2ccc(C(=O)OC)cc2F)cc1 [Compound 374, methyl 3-fluoro-4-(4-(tert-pentyl)phenoxy)benzoate] | 80 to 90 | 1.1 to 1.2 | 80 to 90 | – | – | – |
| COC(=O)c1ccc(Oc2ccc(C34CC5CC(CC(C5)C3)C4)cc2)c(F)c1 [Compound 389, methyl 4-(4-((3r,5r,7r)-adamantan-1-yl)phenoxy)-3-fluorobenzoate] | 20 to 40 | – | 40 to 60 | – | – | – |
| CC(C)(C)c1ccc(Oc2ncc(C(=O)O)cc2F)cc1 [Compound 424, 6-(4-(tert-butyl)phenoxy)-5-fluoronicotinic acid] | 70 to 80 | – | – | – | – | – |
| O=C(O)c1cnc(Oc2ccc(C34CC5CC(CC(C5)C3)C4)cc2)c(F)c1 [Compound 440, 6-(4-((3r,5r,7r)-adamantan-1-yl)phenoxy)-5-fluoronicotinic acid] | 20 to 40 | – | 70 to 80 | – | – | – |
| CCOC(=O)c1ccc(Oc2ccc(C3(C(F)(F)F)CC3)cc2)cc1 [Compound 721, ethyl 4-(4-(1-(trifluoromethyl)cyclopropyl)phenoxy)benzoate] | 70 to 80 | 1.1 to 1.2 | 40 to 60 | – | – | – |
| CCOC(=O)c1ccc(Oc2ccc(C3(C(F)(F)C(F)(F)F)CC3)cc2)cc1 [Compound 722] | 40 to 60 | – | 40 to 60 | – | 70 to 80 | – |
| O=C(O)c1ccc(Oc2ccc(C3(C(F)(F)C(F)(F)F)CC3)cc2)nc1 [Compound 731] | 80 to 90 | – | 80 to 90 | – | – | – |
| COC(=O)c1ccc(Oc2ccc(C3(C(F)(F)F)CC3)cc2Cl)nc1 [Compound 747, methyl 6-(2-chloro-4-(1-(trifluoromethyl)cyclopropyl)phenoxy)nicotinate] | 80 to 90 | – | – | – | – | – |
| CCOC(=O)c1ccc(Oc2ccc(C3(C(F)(F)F)CC3)cc2)nc1 [Compound 748, ethyl 6-(4-(1-(trifluoromethyl)cyclopropyl)phenoxy)nicotinate] | – | – | – | 70 to 80 | – | – |
| CCOC(=O)c1ccc(Oc2ccc(C3(C(F)(F)C(F)(F)F)CC3)cc2)nc1 [Compound 749, Ethyl 6-(4-(1-(perfluoroethyl)cyclopropyl)phenoxy)nicotinate] | 80 to 90 | – | – | – | – | – |
| NC(=O)c1ccc(Oc2ccc(C3(C(F)(F)F)CC3)cc2Cl)nc1 [Compound 801, 6-(2-chloro-4-(1-(trifluoromethyl)cyclopropyl)phenoxy)nicotinamide] | 80 to 90 | – | – | – | – | – |
| O=C(NO)c1ccc(Oc2ccc(C3(C(F)(F)F)CC3)cc2Cl)nc1 [Compound 810, 6-(2-chloro-4-(1-(trifluoromethyl)cyclopropyl)phenoxy)-N-hydroxynicotinamide] | 0 to 20 | – | 0 to 20 | – | – | 0 to 20 |
| CNC(=O)c1ccc(Oc2ccc(C3(C(F)(F)F)CC3)cc2Cl)nc1 [Compound 819] | 70 to 80 | – | 80 to 90 | – | – | – |
| CN(C)C(=O)c1ccc(Oc2ccc(C3(C(F)(F)F)CC3)cc2Cl)nc1 [Compound 828, 6-(2-chloro-4-(1-(trifluoromethyl)cyclopropyl)phenoxy)-N,N-dimethylnicotinamide] | 70 to 80 | – | 60 to 70 | – | – | – |
